# In patent US11407744B2, “Compound and pharmaceutical composition comprising same” (AUTOPHAGYSCIENCES INC., priority 2018, dated 2022):
# Test system: LC3-II production in Hep3B cells
# Assay: Autophagy activation: degree of LC3-II production in Hep3B cells (Western blot band density)
# Format: cell-based, human
# Settings: 12 hours
# Procedure: The degree of autophagy activation of each compound was evaluated by measuring the degree of LC3-II production in Hep3B cells.
# Specifically, Hep3B human hepatocytes were cultured in DMEM medium at 37° C. under 5% CO2 atmosphere. The respective cells were dispensed into 6-well plates at a density of 5×10^5 cells/well. These cells were treated with DMSO, the compound prepared in Examples described above, and the compound of Comparative Example, respectively, and then treated in DMEM medium at 37° C. under 5% CO2 atmosphere for 12 hours to induce autophagy. Subsequently, Hep3B cells were lysed with an extraction buffer containing protease inhibitor cocktail (PBS solution containing 0.5% Triton X-100, 1 mM Na3VO4, etc.), and then fragmentation of DNA was performed by sonication. The amount of protein was measured with bovine serum albumin as a protein standard using SMART™ BCA Protein Assay kit from iNtRON Biotechnology. After electrophoresis of 10˜50 μg of total cell protein in 8˜12% (w/v) polyacrylamide gel containing 0.1% SDS, the proteins present in a gel were transferred to PVDF membrane by an electroblotting technique. Then, in order to block non-specific binding, the PVDF membrane was placed in a TBS-tween (tris-buffered saline-tween, Sigma Co.) solution containing 5% non-fat dry milk and reacted at room temperature for 1 hour. The filter was placed in a TBS-tween solution containing a specific antibody against LC3 protein (Cell Signaling), allowed to stand at 4° C. for 12 hours, and then labeled with a secondary antibody labeled with HRP (Horseradish Peroxidase, Sigma Co., Cat No. P0889). Then, bands were measured using ECL (Enhanced Chemiluminescence, Thermo Scientific, Cat No. 34080).
# The induction of autophagy can be confirmed by an increase in specific LC3-II molecules. LC3 precursors are usually scattered in the cytoplasm, proteolytically cleaved, and present in the form of LC3-I. When autophagy is activated, the C-terminal glycine is modified to form LC3-II, which migrates to autophagosome and is distributed in puncta form.
# The amount of LC3-II increased by the compound treatment was quantified by measuring the band density, and then compared with the amount of LC3-II increased by the treatment of the compound of Comparative Example, and the comparison values are shown in Table 1.
row,SMILES,"increase in LC3-II (induction of autophagy), in words"
1,"COc1ccc(-c2ccc(C(=O)NC(C)C)s2)cc1OC [Comparative Example, 5-(3,4-dimethoxyphenyl)-N-isopropylthiophene-2-carboxamide, reference compound]",Hep3B cells induce autophagy

# Same assay, conditions: amount of LC3-II increased by compound treatment relative to that of the Comparative Example (=1), 12 hours
row,SMILES,Autophagy-inducing capacity
1,"COc1ccc(-c2ccc(C(=O)NC(C)C)s2)cc1OC [Comparative Example, 5-(3,4-dimethoxyphenyl)-N-isopropylthiophene-2-carboxamide, reference compound]",1.00
2,"COc1cc(-c2ccc(C(=O)NC(C)C)s2)ccc1O [Example 1, 5-(4-hydroxy-3-methoxyphenyl)-N-isopropylthiophene-2-carboxamide]",1.48
3,"COc1ccc(-c2ccc(C(=O)NC(C)C)s2)cc1O [Example 2, 5-(3-hydroxy-4-methoxyphenyl)-N-isopropylthiophene-2-carboxamide]",1.38
4,"CC(C)NC(=O)c1ccc(-c2cccc(O)c2)s1 [Example 4, 5-(3-hydroxyphenyl)-N-isopropylthiophene-2-carboxamide]",1.16
5,"CC(C)NC(=O)c1ccc(-c2ccc(O)cc2)s1 [Example 5, 5-(4-hydroxyphenyl)-N-isopropylthiophene-2-carboxamide]",1.80
6,"CC(C)NC(=O)c1ccc(-c2cccnc2)s1 [Example 7, N-isopropyl-5-(pyridin-3-yl)thiophene-2-carboxamide]",1.24
7,"CC(C)NC(=O)c1ccc(-c2ccc3[nH]ccc3c2)s1 [Example 11, 5-(1H-indol-5-yl)-N-isopropylthiophene-2-carboxamide]",2.13
8,"COc1ccc(-c2ccc(C(=O)NC(C)C)s2)c(OC)n1 [Example 12, 5-(2,6-dimethoxypyridin-3-yl)-N-isopropylthiophene-2-carboxamide]",1.19
9,"COc1cc(-c2ccc(C(=O)NC(C)C)s2)cnc1N [Example 14, 5-(6-amino-5-methoxypyridin-3-yl)-N-isopropylthiophene-2-carboxamide]",1.13
10,"CC(C)NC(=O)c1ccc(-c2cncc3ccccc23)s1 [Example 15, N-isopropyl-5-(isoquinolin-4-yl)thiophene-2-carboxamide]",1.50
11,"CC(C)NC(=O)c1ccc(-c2cnc3ccccc3c2)s1 [Example 17, N-isopropyl-5-(quinolin-3-yl)thiophene-2-carboxamide]",1.99
12,"CC(C)NC(=O)c1ccc(-c2cccc(N)c2)s1 [Example 18, 5-(3-aminophenyl)-N-isopropylthiophene-2-carboxamide]",1.13
13,"CC(C)NC(=O)c1ccc(-c2ccc(F)c(F)c2)s1 [Example 27, 5-(3,4-difluorophenyl)-N-isopropylthiophene-2-carboxamide]",1.01
14,"Cc1cc(C)cc(-c2ccc(C(=O)NC(C)C)s2)c1 [Example 28, 5-(3,5-dimethylphenyl)-N-isopropylthiophene-2-carboxamide]",1.60
15,"Cc1cccc(-c2ccc(C(=O)NC(C)C)s2)c1 [Example 30, N-isopropyl-5-m-tolylthiophene-2-carboxamide]",1.02
16,"Cc1ccc(-c2ccc(C(=O)NC(C)C)s2)c(C)c1 [Example 31, 5-(2,4-dimethylphenyl)-N-isopropylthiophene-2-carboxamide]",1.49
17,"Cc1cc(C)cc(-c2ccc(C(=O)Nc3ccccc3)s2)c1 [Example 48, 5-(3,5-dimethylphenyl)-N-phenylthiophene-2-carboxamide]",1.46
18,"O=C(Nc1ccccc1)c1ccc(-c2cccnc2)s1 [Example 49, N-phenyl-5-(pyridin-3-yl)thiophene-2-carboxamide]",1.51
19,"O=C(Nc1cccnc1)c1ccc(-c2cccnc2)o1 [Example 58, N,5-di(pyridin-3-yl)furan-2-carboxamide]",1.10
20,"CC(C)NC(=O)c1ccc(-c2cncc3ccccc23)o1 [Example 65, N-isopropyl-5-(isoquinolin-4-yl)furan-2-carboxamide]",1.66
21,"CC(C)OC(=O)c1ccc(-c2cccnc2)s1 [Example 72, isopropyl 5-(pyridin-3-yl)thiophene-2-carboxylate]",1.08
22,"Cc1cc(C)cc(-c2ccc(C(=O)NC(C)C)o2)c1 [Example 85, 5-(3,5-dimethylphenyl)-N-isopropylfuran-2-carboxamide]",1.09
23,"CCOC(=O)c1ccc(-c2cnc3ccccc3c2)o1 [Example 88, ethyl 5-(quinolin-3-yl)furan-2-carboxylate]",1.02
24,"CCOC(=O)c1ccc(-c2ccc(C#N)cc2)o1 [Example 89, ethyl 5-(4-cyanophenyl)furan-2-carboxylate]",1.64
25,"O=C(Nc1cccnc1)c1ccc(-c2cccc(O)c2)o1 [Example 91, 5-(3-hydroxyphenyl)-N-(pyridin-3-yl)furan-2-carboxamide]",1.33
26,"CCNC(=O)c1cccc(-c2ccc(C(=O)NC(C)C)o2)c1 [Example 92, 5-(3-(ethylcarbamoyl)phenyl)-N-isopropylfuran-2-carboxamide]",1.41
27,"CCNC(=O)c1ccc(-c2ccc(C(=O)NC(C)C)o2)cc1 [Example 93, 5-(4-(ethylcarbamoyl)phenyl)-N-isopropylfuran-2-carboxamide]",1.19
28,"CC(C)NC(=O)c1ccc(-c2ccc(C(=O)NC(C)C)o2)cc1 [Example 94, N-isopropyl-5-(4-(isopropylcarbamoyl)phenyl)furan-2-carboxamide]",1.17
